Laboratory results from patent publication US20260193116A1, “MEMBRANE TREATMENT METHOD, BIOFOULING INHIBITION METHOD, AND ENDOTOXIN PRODUCTION INHIBITION METHOD IN WATER SYSTEM” (KURITA WATER INDUSTRIES LTD., priority 2022, published 2026).

Columns and labels:
[1] = test system: biofouling of RO membrane (MFS cell); assay: MFS water flow test (Example 1): differential pressure increase of the RO membrane cell
[2] = test system: bacterial flora in a biofilm attached to a RO membrane surface; assay: Bacterial flora analysis (16S rRNA amplicon) of biofilm attached to RO membrane surface after water flow test (Example 2)
[3] = test system: biofouling of RO membrane (MFS cell); assay: MFS water flow test (Example 3): differential pressure increase of the RO membrane cell; conditions: citric acid + ammonium chloride + sodium phosphate, 35° C., 0.36 mg/L as Cl2 (DPD method), Continuous addition

## O=S(=O)(O)NCl.[Na] [Chlorosulfamic acid, sodium monochlorosulfamic acid]
[1]
  Differential pressure suppression effect vs Control: 102%
[2]
  (Negative bacteria/[negative bacteria + positive bacterial]) (%): 18.2%
  Acidovorax existence ratio in bacterial flora: 0.1%
  Azotobacter existence ratio in bacterial flora: 0.4%
  Cupriavidus existence ratio in bacterial flora: 4.6%
  Dominant bacteria in the biofilm (in words): Mycolicibacterium genus bacteria and Mycobacterium genus bacteria, which are gram-positive bacteria, were dominant
  Gram-negative bacteria (%): 16.7%
  Gram-negative bacteria Others existence ratio in bacterial flora: 6.5%
  Gram-positive bacteria existence ratio in bacterial flora: 75.1%
  Pseudomonas existence ratio in bacterial flora: 4.8%
  Ralstonia existence ratio in bacterial flora: 0.3%
  Unknown bacteria existence ratio in bacterial flora: 8.2%
[3]
  Differential pressure suppression effect vs Control: 95%
